In brackets after ≈: the same amount, converted by molar mass. Entries after “also recorded” stand apart in the source; their conditions may differ. Where two headings read alike, the source gives them in different places.
Tests used:
Chlamydia trachomatis = test: MIC, Chlamydia trachomatis grown in cell culture; type: cell-based
Text: (§1) In addition, DH-DO-OMT inhibits Mycoplasma species.

M. synoviae = test: MIC against Mycoplasma species; type: cell-based; settings: Mycoplasmopsis synoviae
Text: as §1

M. gallisepticum = test: MIC against Mycoplasma species; type: cell-based; settings: Mycoplasmoides gallisepticum
Text: as §1

[1] = test system: Streptococcus pneumoniae Park 1; type: cell-based
[2] = test system: Clostridium perfringens 81; test: microbe, parasite or virus in culture; type: cell-based; settings: Clostridium perfringens, 81, 24 h
[3] = test system: Streptococcus pyogenes C203; test: In vivo activity against experimental infections in mice; settings: free base, oral, two doses, bacterial challenge 64 LD50
[4] = test system: Fusobacterium necrophorum 6054A; test: MIC against anaerobic bacteria, standard agar-dilution assay; type: cell-based; settings: end point after 24 hours
[5] = test system: Staphylococcus aureus V41; type: cell-based
[6] = test system: Staphylococcus aureus 3055; test: In vivo activity against experimental infections in mice; settings: two doses
Bacteroides fragilis 111 = test: MIC against anaerobic bacteria, standard agar-dilution assay; type: cell-based; settings: end point after 24 hours
[7] = test system: Streptococcus pyogenes C203; type: cell-based
[8] = test system: Bacteroides fragilis 1936B; test: MIC against anaerobic bacteria, standard agar-dilution assay; type: cell-based; settings: end point after 24 hours
[9] = test system: Staphylococcus epidermidis EPI1; type: cell-based
[10] = test system: Streptococcus faecium ATCC 9790; type: cell-based; settings: Enterococcus faecium, ATCC9790
[11] = test system: Haemophilus influenzae C.L.; type: cell-based
[12] = test system: Peptococcus asaccharolyticus 1302; test: MIC against anaerobic bacteria, standard agar-dilution assay; type: cell-based; settings: Peptoniphilus asaccharolyticus, end point after 24 hours
[13] = test system: Streptococcus sp. group D 9960; type: cell-based
[14] = test system: Bacteroides fragilis 1877; test: MIC against anaerobic bacteria, standard agar-dilution assay; type: cell-based; settings: end point after 24 hours
[15] = test system: Peptostreptococcus anaerobius 1428; test: as above; type: cell-based; settings: end point after 24 hours
[16] = test system: Streptococcus pneumoniae Park I; test: In vivo activity against experimental infections in mice; settings: po
[17] = test system: Eubacterium aerofaciens 1235; test: MIC against anaerobic bacteria, standard agar-dilution assay; type: cell-based; settings: Collinsella aerofaciens, end point after 24 hours
[18] = test system: Bacteroides melaninogenicus 2736; test: as above; type: cell-based; settings: end point after 24 hours
[19] = test system: Staphylococcus epidermidis EPI2; type: cell-based; settings: free base, agar dilution
[20] = test system: pathogenic bacteria, especially gram-positive bacteria and Mycoplasma species; test: Antibacterial activity (in words); type: cell-based; settings: qualitative statement
Text: (§2) Table 3 summarizes the minimal inhibitory concentrations (MIC), as measured by standard agar-dilution assays, at which DH-DO-DMT and DH-DO-OMT (as free bases) inhibit certain bacteria.

Escherichia coli TEM = type: cell-based
[21] = test system: Bacteroides vulgatis 1211; test: MIC against anaerobic bacteria, standard agar-dilution assay; type: cell-based; settings: end point after 24 hours
Peptococcus prevoti 1281 = test: as above; type: cell-based; settings: end point after 24 hours
Description: (§3) Table 4 summarizes the MIC's at which DH-DO-OMT inhibits these bacteria. The MIC's were determined using a standard agar-dilution assay and reading the end point after 24 hours.

[22] = test system: Clostridium septicum 1128; test: as above; type: cell-based; settings: end point after 24 hours
Description: as §3

[23] = test system: Bacteroides thetaiotaomicron 1438; test: as above; type: cell-based; settings: Bacteroides thetaiotaomicron, 1438, 24 h
Description: as §3

[24] = test system: Haemophilus influenzae 76; type: cell-based
[25] = test system: Bacteroides corrodens 1874; test: MIC against anaerobic bacteria, standard agar-dilution assay; type: cell-based; settings: Eikenella corrodens, end point after 24 hours
[26] = test system: Peptostreptococcus intermedius 1264; test: as above; type: cell-based; settings: end point after 24 hours
[27] = test system: Staphylococcus aureus NRRL B313; type: cell-based; settings: NRRLB313
[28] = test system: Clostridium difficile 2994; test: MIC against anaerobic bacteria, standard agar-dilution assay; type: cell-based; settings: Clostridioides difficile, end point after 24 hours
[29] = test system: Bacteroides melaninogenicus 1856/28; test: as above; type: cell-based; settings: end point after 24 hours
[30] = test system: Staphylococcus aureus X400; type: cell-based
Shigella sonnei N9 = type: cell-based; settings: free base, agar dilution
Text: as §2

Escherichia coli N10 = type: cell-based; settings: free base, agar dilution
Text: as §2

Escherichia coli EC14 = type: cell-based; settings: free base, agar dilution
Text: as §2

[31] = test system: Klebsiella pneumoniae KAE; type: cell-based; settings: free base, agar dilution
Text: as §2

[32] = test system: Propionibacterium acnes 79; test: MIC against anaerobic bacteria, standard agar-dilution assay; type: cell-based; settings: Cutibacterium acnes, end point after 24 hours
[33] = test system: Klebsiella pneumoniae X26; type: cell-based
[34] = test system: Fusobacterium symbiosum 1470; test: MIC against anaerobic bacteria, standard agar-dilution assay; type: cell-based; settings: end point after 24 hours
Solubility = type: physicochemical; settings: for solubility in polar organic solvents: free bases, acetone, methanol, ethanol, chloroform, dimethylformamide, dimethyl sulfoxide; for solubility in water: free bases (rows) or acid addition salts (sets)

In the case of CCC1CC(C)C(=O)C=CC(C)=CC(CO)C(CC)OC(=O)CC(O)C(C)C1OC1OC(C)C(O)C(N(C)C)C1O (stereo not drawn) [DH-DO-OMT, 20-Dihydro-20-deoxy-5-O-mycaminosyltylonolide], the MIC (Chlamydia trachomatis) is reported as 0.5 µg/mL (≈ 0.857 µM), the MIC (M. synoviae) is reported as 12.5 µg/mL (≈ 21.4 µM) and the MIC (M. gallisepticum) is reported as 12.5 µg/mL (≈ 21.4 µM). It also gave an MIC ([1]; PARK1, read-out: MIC) of 8 µg/mL (≈ 13.7 µM), an MIC [2] of 2 µg/mL (≈ 3.43 µM) and an ED50 [3] of 75.3 mg/kg. For the same compound, the MIC [4] was 8 µg/mL (≈ 13.7 µM), the MIC ([5]; free base, agar dilution, Staphylococcus aureus V41, read-out: MIC) was 4 µg/mL (≈ 6.85 µM) and the ED50 ([6]; Staphylococcus aureus, 3055, free base, oral, bacterial challenge 100 LD50) was 44 mg/kg. For the same compound, the ED50 ([6]; Staphylococcus aureus, 3055, sc, free base, subcutaneous, bacterial challenge 221 LD50) was 37.3 mg/kg, the MIC (Bacteroides fragilis 111) was > 8 µg/mL and the MIC ([7]; free base, agar dilution, Streptococcus pyogenes C203, read-out: MIC) was 8 µg/mL (≈ 13.7 µM). For the same compound, the MIC [8] was > 8 µg/mL, the MIC ([9]; read-out: MIC) was 8 µg/mL (≈ 13.7 µM) and the MIC ([10]; free base, agar dilution, Streptococcus faecium ATCC 9790, read-out: MIC) was 16 µg/mL (≈ 27.4 µM). The MIC ([11]; free base, agar dilution, Haemophilus influenzae C.L., read-out: MIC) was 16 µg/mL (≈ 27.4 µM), the MIC [12] was > 8 µg/mL and the MIC ([13]; free base, agar dilution, Streptococcus sp. group D 9960, read-out: MIC) was 16 µg/mL (≈ 27.4 µM). For the same compound, the MIC [14] was > 8 µg/mL, the MIC [15] was > 8 µg/mL and the ED50 [16] was 224 mg/kg. The MIC [17] was 2 µg/mL (≈ 3.43 µM), the MIC [18] was > 8 µg/mL and the MIC [19] was 8 µg/mL (≈ 13.7 µM). The antibacterial activity [20] was “inhibit the growth of pathogenic bacteria, especially gram-positive bacteria and Mycoplasma species; also recorded: active against gram-positive microorganisms and Mycoplasma species”, the MIC (Escherichia coli TEM; free base, agar dilution, Escherichia coli TEM, read-out: MIC) was 64 µg/mL (≈ 110 µM) and the MIC [21] was > 8 µg/mL. For the same compound, the MIC (Peptococcus prevoti 1281) was > 8 µg/mL, the MIC [22] was 2 µg/mL (≈ 3.43 µM) and the MIC [23] was > 8 µg/mL. For the same compound, the MIC ([24]; free base, agar dilution, Haemophilus influenzae 76, read-out: MIC) was 16 µg/mL (≈ 27.4 µM), the MIC [25] was > 8 µg/mL and the MIC [26] was > 8 µg/mL. For the same compound, the MIC ([27]; free base, agar dilution, Staphylococcus aureus NRRL B313, read-out: MIC) was 4 µg/mL (≈ 6.85 µM), the MIC [28] was 2 µg/mL (≈ 3.43 µM) and the MIC [29] was > 8 µg/mL. The MIC ([30]; free base, agar dilution, Staphylococcus aureus X400, read-out: MIC) was 8 µg/mL (≈ 13.7 µM), the MIC (Shigella sonnei N9) was > 128 µg/mL and the MIC (Escherichia coli N10) was > 128 µg/mL. For the same compound, the MIC (Escherichia coli EC14) was > 128 µg/mL, the MIC [31] was > 128 µg/mL and the MIC [32] was 2 µg/mL (≈ 3.43 µM). The MIC ([33]; free base, agar dilution, Klebsiella pneumoniae X26, read-out: MIC) was 4 µg/mL (≈ 6.85 µM), the MIC [34] was > 8 µg/mL and the “solubility in polar organic solvents” value (Solubility) was “soluble in water and in most polar organic solvents”. The solubility in water (Solubility) was “soluble in water”.

In the case of CCC1CC(C)C(=O)C=CC(C)=CC(CO)C(CC)OC(=O)CC(O)C(C)C1OC1OC(C)C(OC2CC(C)(O)C(O)C(C)O2)C(N(C)C)C1O (stereo not drawn) [DH-DO-DMT, 20-dihydro-20-deoxy-23-demycinosyltylosin], the MIC ([1]; PARK1) is reported as > 128 µg/mL, the MIC ([5]; Staphylococcus aureus, V41) is reported as 128 µg/mL (≈ 176 µM) and the MIC ([7]; Streptococcus pyogenes, C203) is reported as > 128 µg/mL. The MIC [9] was 128 µg/mL (≈ 176 µM), the MIC [10] was > 128 µg/mL and the MIC ([11]; Haemophilus influenzae) was > 128 µg/mL. The MIC ([13]; Streptococcus) was > 128 µg/mL, the MIC [19] was 64 µg/mL (≈ 87.9 µM) and the antibacterial activity [20] was “inhibit the growth of pathogenic bacteria, especially gram-positive bacteria and Mycoplasma species; also recorded: some antibacterial activity; also recorded: active against gram-positive microorganisms and Mycoplasma species”. For the same compound, the MIC (Escherichia coli TEM; Escherichia coli) was > 128 µg/mL, the MIC ([24]; Haemophilus influenzae, 76) was > 128 µg/mL and the MIC ([27]; Staphylococcus aureus) was 128 µg/mL (≈ 176 µM). The MIC ([30]; Staphylococcus aureus, X400) was > 128 µg/mL, the MIC (Shigella sonnei N9) was > 128 µg/mL and the MIC (Escherichia coli N10) was > 128 µg/mL. For the same compound, the MIC (Escherichia coli EC14) was > 128 µg/mL, the MIC [31] was > 128 µg/mL and the MIC ([33]; Klebsiella pneumoniae, X26) was > 128 µg/mL. For the same compound, the “solubility in polar organic solvents” value (Solubility) was “soluble in water and in most polar organic solvents” and the solubility in water (Solubility) was “soluble in water”.
